Measured values from patent US11716992B2, “5A5B6C tricyclic spirolactone derivative, preparation method therefor and use thereof” (NANKAI UNIVERSITY, priority 2017, dated 2023).
Read-outs that look alike come from different tables or passages of the source.

Legend:
[1] = tested on: Mythimna separate (Walker); test: Insecticidal activity against Mythimna separate (Walker); assay type: in vivo; conditions: Mythimna, 100 μg/mL; read-out: insecticidal activity, Mythimna separate (Walker)
[2] = tested on: Helicoverpa armigera (Hübner); test: Insecticidal activity against Helicoverpa armigera (Hübner); assay type: in vivo; conditions: Helicoverpa armigera; 100 μg/mL; read-out: insecticidal activity, Helicoverpa armigera (Hübner)
Ostrinia furnacalis = test: Insecticidal activity against Ostrinia furnacalis; assay type: in vivo; conditions: Ostrinia furnacalis; 100 μg/mL; read-out: insecticidal activity, Ostrinia furnacalis
Caenorhabditis elegans = test: Insecticidal activity against Caenorhabditis elegans; assay type: in vivo; conditions: Caenorhabditis elegans, 100 μg/mL; read-out: insecticidal activity, Caenorhabditis elegans
Alternaria solani = test: Fungicidal activity, fungicide growth rate method, AS; assay type: cell-based; conditions: Alternaria solani, 50 μg/mL; read-out: fungicidal activity (growth inhibition rate), AS
Botrytis cinerea = test: Fungicidal activity, fungicide growth rate method, BC; assay type: cell-based; conditions: Botrytis cinerea, 50 μg/mL; read-out: fungicidal activity (growth inhibition rate), BC
[3] = tested on: Phytophthora infestans (Mont.) de Bary; test: microbe, parasite or virus in culture; assay type: cell-based; conditions: Phytophthora infestans, read-out: fungicidal activity (growth inhibition rate), PI, 50 μg/mL
Pellicularia sasakii = test: Fungicidal activity, fungicide growth rate method, PS; assay type: cell-based; conditions: 50 μg/mL; read-out: fungicidal activity (growth inhibition rate), PS
Rhizoctonia cerealis = test: Fungicidal activity, fungicide growth rate method, RC; assay type: cell-based; conditions: Ceratobasidium cereale, 50 μg/mL; read-out: fungicidal activity (growth inhibition rate), RC
Sclerotinia sclerotiorum = test: Fungicidal activity, fungicide growth rate method, SS; assay type: cell-based; conditions: Sclerotinia sclerotiorum, 50 μg/mL
Cercospora arachidicola = test: Fungicidal activity, fungicide growth rate method, CA; assay type: cell-based; conditions: Mycosphaerella arachidis, 50 μg/mL; read-out: fungicidal activity (growth inhibition rate), CA
Physalospora piricola = test: Fungicidal activity, fungicide growth rate method, PP; assay type: cell-based; conditions: 50 μg/mL; read-out: fungicidal activity (growth inhibition rate), PP
wheat Gibberella zeae = test: microbe, parasite or virus in culture; assay type: cell-based; conditions: Fusarium graminearum, read-out: fungicidal activity (growth inhibition rate), GZ, 50 μg/mL
[4] = tested on: Apis mellifera ligustica Spin; conditions: for Death number after 24 h / Death number after 48 h: per replicate of 10 bees

CC(C)(C)OO[C@@H]1CC(=O)[C@@]2(O)CC=CC[C@H]12 [Zyj06-92-2]
pest or weed control at 100 µg/mL [1]: 20% | pest or weed control at 100 µg/mL [2]: 10% | pest or weed control at 100 µg/mL (Ostrinia furnacalis): 10% | pest or weed control at 100 µg/mL (Caenorhabditis elegans): 20% | inhibition at 50 µg/mL (Alternaria solani): > 60% | inhibition at 50 µg/mL (Botrytis cinerea): 30% | inhibition at 50 µg/mL [3]: 15% | inhibition at 50 µg/mL (Pellicularia sasakii): 41% | inhibition at 50 µg/mL (Rhizoctonia cerealis): > 70% | inhibition at 50 µg/mL (Sclerotinia sclerotiorum): 38%

CCOC(=O)C[C@@H]1C[C@]2(O)CC(=O)O[C@@]23CC=CC[C@H]13 [Zyj06-128]
pest or weed control at 100 µg/mL (Caenorhabditis elegans): > 30% | inhibition at 50 µg/mL (Botrytis cinerea): 25% | inhibition at 50 µg/mL (Cercospora arachidicola): 27% | inhibition at 50 µg/mL [3]: 7% | inhibition at 50 µg/mL (Physalospora piricola): 8% | inhibition at 50 µg/mL (Pellicularia sasakii): 20% | inhibition at 50 µg/mL (Rhizoctonia cerealis): > 70% | inhibition at 50 µg/mL (Sclerotinia sclerotiorum): 0%

C=C(C)C1CC(=O)[C@@]2(O)CC=CC[C@H]12 (stereo partly shown) [Zyj06-166]
pest or weed control at 100 µg/mL [1]: 0% | pest or weed control at 100 µg/mL [2]: 0% | pest or weed control at 100 µg/mL (Ostrinia furnacalis): 0% | pest or weed control at 100 µg/mL (Caenorhabditis elegans): 5% | inhibition at 50 µg/mL (Botrytis cinerea): 36% | inhibition at 50 µg/mL (Cercospora arachidicola): > 50% | inhibition at 50 µg/mL (wheat Gibberella zeae): 27% | inhibition at 50 µg/mL [3]: 25% | inhibition at 50 µg/mL (Physalospora piricola): 38% | inhibition at 50 µg/mL (Pellicularia sasakii): 18% | inhibition at 50 µg/mL (Rhizoctonia cerealis): 0% | inhibition at 50 µg/mL (Sclerotinia sclerotiorum): 17% | Death rate after 48 h (%) ([4]; dosage 9.93 μg a.i./bee): 0% | Death number after 24 h ([4]; dosage 9.93 μg a.i./bee): 0 | Death number after 48 h ([4]; dosage 9.93 μg a.i./bee): 0 | Death rate after 48 h (%) ([4]; dosage 19.7 μg a.i./bee): 10.0% | Death number after 24 h ([4]; dosage 19.7 μg a.i./bee): 0 | Death number after 48 h ([4]; dosage 19.7 μg a.i./bee): 1

C=C(C)C1C[C@]2(O)C(C(=O)OCC)C(=O)O[C@@]23CC=CC[C@H]13 (stereo partly shown) [Zyj06-167]
pest or weed control at 100 µg/mL (Caenorhabditis elegans): 25% | inhibition at 50 µg/mL (Botrytis cinerea): 13% | inhibition at 50 µg/mL (Cercospora arachidicola): 26% | inhibition at 50 µg/mL (wheat Gibberella zeae): 46% | inhibition at 50 µg/mL [3]: 0% | inhibition at 50 µg/mL (Physalospora piricola): 0% | inhibition at 50 µg/mL (Pellicularia sasakii): 24% | inhibition at 50 µg/mL (Rhizoctonia cerealis): 59% | inhibition at 50 µg/mL (Sclerotinia sclerotiorum): 9%

C=C(C)[C@@H]1C[C@]2(O)CC(=O)O[C@@]23CC=CC[C@H]13 [Zyj06-175]
pest or weed control at 100 µg/mL (Caenorhabditis elegans): 15% | inhibition at 50 µg/mL (Botrytis cinerea): 25% | inhibition at 50 µg/mL (Cercospora arachidicola): 33% | inhibition at 50 µg/mL (wheat Gibberella zeae): 14% | inhibition at 50 µg/mL [3]: 0% | inhibition at 50 µg/mL (Physalospora piricola): 8% | inhibition at 50 µg/mL (Pellicularia sasakii): 5% | inhibition at 50 µg/mL (Rhizoctonia cerealis): 61% | inhibition at 50 µg/mL (Sclerotinia sclerotiorum): 11%

C=CC[C@@H]1C[C@]2(O)CC(=O)O[C@@]23CC=CC[C@H]13 [Zyj06-186]
pest or weed control at 100 µg/mL [1]: 0% | pest or weed control at 100 µg/mL [2]: 0% | pest or weed control at 100 µg/mL (Ostrinia furnacalis): 0% | pest or weed control at 100 µg/mL (Caenorhabditis elegans): 15% | inhibition at 50 µg/mL (Alternaria solani): 7% | inhibition at 50 µg/mL (Botrytis cinerea): 49% | inhibition at 50 µg/mL (Cercospora arachidicola): 46% | inhibition at 50 µg/mL (wheat Gibberella zeae): 21% | inhibition at 50 µg/mL [3]: 4% | inhibition at 50 µg/mL (Physalospora piricola): 11% | inhibition at 50 µg/mL (Pellicularia sasakii): 6% | inhibition at 50 µg/mL (Rhizoctonia cerealis): 41% | inhibition at 50 µg/mL (Sclerotinia sclerotiorum): > 50%
